{"source": "paper PMC6651268", "about": "“The 3S Enantiomer Drives Enolase Inhibitory Activity in SF2312 and Its Analogues” (Molecules, 2019)", "key": {"ENO2 [1]": {"molecular_target": "T1, ENO2 (Homo sapiens, UniProt P09104)", "T1 sequence (P09104 whole entry)": "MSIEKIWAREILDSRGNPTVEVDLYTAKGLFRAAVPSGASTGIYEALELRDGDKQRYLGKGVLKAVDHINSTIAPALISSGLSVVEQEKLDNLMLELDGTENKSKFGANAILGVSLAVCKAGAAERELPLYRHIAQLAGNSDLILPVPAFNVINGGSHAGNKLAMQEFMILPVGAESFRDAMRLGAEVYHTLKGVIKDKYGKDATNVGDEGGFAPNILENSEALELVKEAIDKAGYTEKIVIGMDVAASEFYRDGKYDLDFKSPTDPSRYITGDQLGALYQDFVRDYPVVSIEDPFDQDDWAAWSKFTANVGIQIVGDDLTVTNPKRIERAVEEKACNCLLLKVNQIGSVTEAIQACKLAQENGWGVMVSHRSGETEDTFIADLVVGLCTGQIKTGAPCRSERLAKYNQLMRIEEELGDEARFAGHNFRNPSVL", "test": "X-ray structure of ENO2 crystals soaked with inhibitor", "type": "binding", "set-up": "His tag (only implied by NiNTA purification); made in house", "details": "apo ENO2 crystals soaked with 2 mM compound; unbiased 2Fo-Fc omit map", "protocol": "MethylSF2312 was co-crystallized with Human ENO2 to determine the configuration of the active compound in the active site. Apo crystals of ENO2 were prepared using published methods and were soaked in cryoprotectant containing the racemic mixture of MethylSF2312 for 16 h prior to freezing. The resulting co-crystal structure was resolved (Table 1), with four ENO2 homodimers in the asymmetric unit of the monoclinic crystal (PDB 5EU9).\nRecombinant ENO2 protein was prepared using NiNTA affinity and size exclusion chromatography as described previously Apo crystals of Human Enolase 2 were prepared by streak seeding hanging drop solutions after mixing 0.5 μL 9.1 mg mL^−1 Enolase 2 with 0.5 μL reservoir solution (200 mM ammonium acetate, 100 mM Bis-Tris and 18–22% (w/v) PEG 3350). The hanging drops were incubated at room temperature above a 500 μL reservoir. Apo crystals were subsequently soaked overnight in 1 μL drops containing 100 mM Bis-Tis, 200 mM ammonium acetate, 32% (w/v) PEG 3350 at pH 6.5, supplemented with 2 mM racemate or pure enantiomer of MethylSF2312 compound, prior to flash freezing in liquid nitrogen. X-ray diffraction datasets were collected at 100 K using a wavelength of 1.11587 Å at the Advanced Light Source Beamline 8.3.1, equipped with ADSC Q315r detector. The diffraction images were indexed and integrated using iMOSFLM [19] and scaled using AIMLESS [20]. […]"}, "ENO1": {"molecular_target": "T2, ENO1 (Homo sapiens, UniProt P06733)", "T2 construct": "expressed in transfected cells; host or cells: D423-MG (ENO1-deleted human glioma) with ectopic ENO1", "T2 sequence (P06733 whole entry)": "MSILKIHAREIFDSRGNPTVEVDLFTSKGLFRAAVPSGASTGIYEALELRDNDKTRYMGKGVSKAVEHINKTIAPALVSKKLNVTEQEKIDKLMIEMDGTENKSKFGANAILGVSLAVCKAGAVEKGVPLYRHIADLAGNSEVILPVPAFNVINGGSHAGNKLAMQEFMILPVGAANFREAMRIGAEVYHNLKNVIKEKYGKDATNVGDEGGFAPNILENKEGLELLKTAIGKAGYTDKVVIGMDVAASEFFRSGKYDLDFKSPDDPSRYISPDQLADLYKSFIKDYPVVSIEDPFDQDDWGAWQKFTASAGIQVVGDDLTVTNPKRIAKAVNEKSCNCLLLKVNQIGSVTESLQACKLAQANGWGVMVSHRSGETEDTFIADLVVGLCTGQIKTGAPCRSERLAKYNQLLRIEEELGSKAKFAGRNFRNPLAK", "test": "Enolase activity, NADH-linked PK/LDH coupled fluorometric assay in native lysates of human cancer cells overexpressing ENO1", "type": "biochemical", "details": "for IC50: lysates of D423 cells overexpressing ENO1", "protocol": "We then determined Enolase inhibitory activity of (3R)-P1 and (3S)-P2 derived MethylSF2312 in native lysates from human cancer cells and E. coli overexpressing ENO1 and ENO2.\n(§1) Native lysates of human cell lines were prepared using 20 mM Tris HCl, 1 mM EDTA, and 1 mM β-mercaptoethanol at pH 7.4 as described previously. Enolase activity was measured using two different methods, either by a fluorometric NADH-linked assay or a direct spectrophotometric assay via formation of PEP. In the fluorescent assay, enolase activity was measured via NADH oxidation in a pyruvate kinase–lactate dehydrogenase coupled assay as previously described. The assay is conducted in 10 mM KCl, 5 mM MgSO4, 100 mM triethanolamine at pH 7.4, with 400 µM NADH and 2 mM ADP. 2-Phosphoglycerate (2-PGA), pyruvate kinase (PK) and lactate dehydrogenase (LDH) are provided in excess, with the conversion of 2-PGA to PEP by enolase being rate limiting. PEP (with ADP) is a substrate of PK; pyruvate formed by this reaction is linked to NADH oxidation by LDH. Enolase activity is determined by measuring oxidation of NADH fluorescently by excitation at 340 nm and emission at 460 nm. The substrate concentration, if not otherwise indicated, was 5 mM 2-PGA. Fluorescence was measured using the Omega Fluorescence Plate Reader (BMG Labtech). Enolase activity was measured in native lysates of E. coli. Overnight grown saturated E. coli (DH5α) liquid culture was pelleted by centrifugation, washed and resuspended in 50 µL of lysis buffer which contains 150 mM NaCl, 50 mM Tris, 1mM EDTA, 2 mM DTT and 0.025% sodium azide. PMSF (10 mM stock solution) was then added to the lysate to make the final concentration 1 mM with 1% sodium deoxycholate. The suspension was incubated at 4 °C with constant mixing. The extract was centrifuged at 4 °C, 14,000 g for 15 min. Enolase activity in E. coli native lysates was measured directly by the appearance of PEP from 2-PGA via absorption at 240 nm. The assay medium was the same, except that all the auxiliary reagents (PK/LDH, NADH, ADP) are omitted. […]"}, "[2]": {"system": "D423 ENO1-deleted glioma cells", "test": "Proliferation assay of glioma cell lines by crystal violet staining", "type": "cell-based, human", "details": "for toxicity against ENO1-deleted versus ENO1-intact glioma cells (in words): six days of treatment, D423 ENO1-deleted vs D423 ENO1-rescued and LN319 ENO1-WT", "description": "The cell line D423-MG was provided by Dr. Bigner. The 1p36 homozygous deletion in D423-MG spans from the CAMTA1 to SLC25A33 genes, including ENO1. The generation of isogenic ENO1 and ENO2 ectopically rescued lines was described previously. The LN319 cell line was obtained from Cell Bank of The Department of Genomic Medicine at M.D. Anderson. Cells were routinely cultured in high glucose, glutamine, and pyruvate containing Dulbecco’s modified Eagle’s medium (DMEM) with 10% fetal bovine serum (FBS).\nCell proliferation of glioma cell lines was assayed through crystal violet staining. Cells were seeded at 1500 cells/well in 96-well plates, and after 24 h, were treated with dilution series of enolase inhibitors, with each treatment concentration in duplicate wells. At the indicated time, cells were fixed with 10% formalin and stained with crystal violet. Dye extraction was performed using 10% acetic acid solution, and absorbance was read at 595 nm."}, "ENO2 [3]": {"molecular_target": "T1, ENO2", "test": "Enolase activity, NADH-linked PK/LDH coupled fluorometric assay in native lysates of human cancer cells overexpressing ENO2", "type": "biochemical", "set-up": "expressed in transfected cells; host or cells: D423-MG (ENO1-deleted human glioma) with ectopic ENO2", "protocol": "(§2) To compare the effects of isomeric mixtures of MethylSF2312 and SF2312 on Enolase activity, we measured the formation PEP coupled to the oxidation of NADH via LDH/PK on human cancer cells overexpressing ENO2 [4, 14]. […] Here, we favored the direct measurement of PEP absorbance, rather than of NADH, due to the high levels of endogenous NADH oxidase activity in bacterial lysates.\nNative lysates of human cell lines were prepared using 20 mM Tris HCl, 1 mM EDTA, and 1 mM β-mercaptoethanol at pH 7.4 as described previously. Enolase activity was measured using two different methods, either by a fluorometric NADH-linked assay or a direct spectrophotometric assay via formation of PEP. In the fluorescent assay, enolase activity was measured via NADH oxidation in a pyruvate kinase–lactate dehydrogenase coupled assay as previously described. The assay is conducted in 10 mM KCl, 5 mM MgSO4, 100 mM triethanolamine at pH 7.4, with 400 µM NADH and 2 mM ADP. 2-Phosphoglycerate (2-PGA), pyruvate kinase (PK) and lactate dehydrogenase (LDH) are provided in excess, with the conversion of 2-PGA to PEP by enolase being rate limiting. PEP (with ADP) is a substrate of PK; pyruvate formed by this reaction is linked to NADH oxidation by LDH. Enolase activity is determined by measuring oxidation of NADH fluorescently by excitation at 340 nm and emission at 460 nm. The substrate concentration, if not otherwise indicated, was 5 mM 2-PGA. Fluorescence was measured using the Omega Fluorescence Plate Reader (BMG Labtech). Enolase activity was measured in native lysates of E. coli. Overnight grown saturated E. coli (DH5α) liquid culture was pelleted by centrifugation, washed and resuspended in 50 µL of lysis buffer which contains 150 mM NaCl, 50 mM Tris, 1mM EDTA, 2 mM DTT and 0.025% sodium azide. PMSF (10 mM stock solution) was then added to the lysate to make the final concentration 1 mM with 1% sodium deoxycholate. The suspension was incubated at 4 °C with constant mixing. The extract was centrifuged at 4 °C, 14,000 g for 15 min. Enolase activity in E. coli native lysates was measured directly by the appearance of PEP from 2-PGA via absorption at 240 nm. The assay medium was the same, except that all the auxiliary reagents (PK/LDH, NADH, ADP) are omitted. Assays were conducted in a 96-well plated format with the direct assay performed in UV-transmissible plates."}, "E. coli (DH5α)": {"system": "E. coli (DH5α)", "test": "Kirby Bauer disc diffusion antibiotic sensitivity testing", "type": "cell-based, Escherichia coli", "details": "for zone of inhibition at 35 µg/disc: Escherichia coli, read-out: clear zone of growth inhibition", "protocol": "Finally, the antibiotic activities of SF2312 and MethylSF2312 were compared in E. coli using the disc diffusion method. A 7 mm filter paper disc imbued with 35 µg of either SF2312 or MethylSF2312 was placed on an E. coli lawn on Muller-Hinton Agar. […] Of note, growth inhibition was only observed with the addition of glucose-6-phosphate (G6P).\nKirby Bauer disc diffusion antibiotic sensitivity testing was performed on Mueller Hinton II Agar (BD #221275) or BBL™ Columbia Agar with 5% Sheep Blood (BD #221165). An overnight overnight-grown saturated E. coli (DH5α) liquid culture was diluted (1:50) in water and streaked on the agar plate to form a bacterial lawn. D-Glucose-6-phosphate (Sigma #G7250) was made in 100 mM stock solution and added to the diluted bacteria to achieve 2 mM final concentration right before streaking the plate. A 7 mm Whatman™ 3MM Chr Chromatography filter paper disc (Whatman # 3030-6189) was imbued with 7 µL of an aqueous solution of inhibitor, placed on the streaked agar plate and incubated overnight at 37 °C."}, "[4]": {"molecular_target": "T3, Enolase in Escherichia coli lysates (Escherichia coli, UniProt P0A6P9)", "T3 construct": "Overnight grown saturated E. coli (DH5α) liquid culture was pelleted by centrifugation; endogenous in cells; host or cells: E. coli DH5α", "T3 sequence (P0A6P9 whole entry)": "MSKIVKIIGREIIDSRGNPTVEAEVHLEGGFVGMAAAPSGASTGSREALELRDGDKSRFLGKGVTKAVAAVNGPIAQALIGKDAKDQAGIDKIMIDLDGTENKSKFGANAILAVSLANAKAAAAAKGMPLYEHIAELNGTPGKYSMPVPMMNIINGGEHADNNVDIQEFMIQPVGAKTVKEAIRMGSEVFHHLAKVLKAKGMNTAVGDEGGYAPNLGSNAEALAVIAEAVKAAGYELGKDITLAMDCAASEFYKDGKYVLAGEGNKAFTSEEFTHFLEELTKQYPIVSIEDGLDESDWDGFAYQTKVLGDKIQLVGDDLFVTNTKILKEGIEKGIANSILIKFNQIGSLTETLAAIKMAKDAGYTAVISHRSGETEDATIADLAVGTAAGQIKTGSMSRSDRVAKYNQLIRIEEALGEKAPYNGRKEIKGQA", "test": "Enolase activity in E. coli native lysates, direct measurement of PEP formation at 240 nm", "type": "biochemical", "protocol": "as §2\nas §1, with “The extract was centrifuged at 4 °C, 14,000 g for 15 min.” left out, “nm.” for “nm. The assay medium was the same, except that all the auxiliary reagents (PK/LDH, NADH, ADP) are omitted.”"}, "[5]": {"details": "lysates of human cancer cells (D423) overexpressing ENO2, 5 mM 2-PGA, read-out: IC50 for ENO2"}}, "note": "Where two headings read alike, the source gives them in different places."}
{"smiles": "C[C@@]1(P(=O)(O)O)CC(O)N(O)C1=O", "note": "(stereo partly drawn) [(3R)-MethylSF2312]", "values": [{"measurement": "occupancy of the ENO2 active site in the electron density map (in words)", "setting": "ENO2 [1]", "value": "no evidence of occupancy"}, {"measurement": "fold less potent than (3S)-MethylSF2312", "setting": "ENO1; ENO1, ratio of IC50 values", "value": 2000, "unit": "fold"}, {"measurement": "IC50", "setting": "ENO1", "value": "~15000", "unit": "nM"}, {"measurement": "toxicity towards ENO1-deleted glioma cells (in words)", "setting": "[2]; even at 400 µM, D423 ENO1-deleted, 7 days", "value": "minimal toxicity"}, {"measurement": "IC50", "setting": "ENO2 [3]; lysates of D423 cells overexpressing ENO2, read-out: IC50 for ENO2", "value": "~15000", "unit": "nM"}]}
{"smiles": "C[C@]1(P(=O)(O)O)CC(O)N(O)C1=O", "note": "(stereo partly drawn) [(3S)-MethylSF2312]", "values": [{"measurement": "occupancy of the ENO2 active site in the electron density map (in words)", "setting": "ENO2 [1]", "value": "occupied in 3S,5S-configuration"}, {"measurement": "zone of inhibition (in words)", "setting": "E. coli (DH5α); 35 µg per disc, Muller Hinton Agar and Blood Agar, with G6P, overnight 37 °C", "value": "distinct zone of inhibition"}, {"measurement": "fold greater Enolase inhibitory potency compared to (3R)-MethylSF2312", "setting": "[4]; E. coli lysates", "value": "~ 2000 fold"}, {"measurement": "IC50", "setting": "ENO1", "value": "~10", "unit": "nM"}, {"measurement": "concentration exhibiting toxicity to ENO1-deleted glioma cells", "setting": "[2]; D423 ENO1-deleted, 7 days, crystal violet", "value": "~ 2 µM"}, {"measurement": "IC50", "setting": "ENO2 [3]; [5]", "value": "~10", "unit": "nM"}]}
{"smiles": "CC1(P(=O)(O)O)CC(O)N(O)C1=O", "note": "(stereo not shown) [MethylSF2312, (1,5-dihydroxy-3-methyl-2-oxopyrrolidin-3-yl)phosphonic acid]", "values": [{"measurement": "zone of inhibition at 35 µg/disc", "setting": "E. coli (DH5α); 7 mm disc with 35 µg, Muller-Hinton Agar, overnight, with glucose-6-phosphate", "value": "~24", "unit": "mm"}, {"measurement": "IC50", "setting": "[4]; direct PEP absorbance at 240 nm, read-out: IC50, Enolase in E. coli lysates", "value": "~10", "unit": "nM"}, {"measurement": "toxicity against ENO1-deleted versus ENO1-intact glioma cells (in words)", "setting": "[2]", "value": "selective toxicity"}, {"measurement": "IC50", "setting": "ENO2 [3]; [5]", "value": "~10", "unit": "nM"}]}
{"smiles": "O=C1C(P(=O)(O)O)CC(O)N1O", "note": "(stereo not shown) [SF2312, (1,5-dihydroxy-2-oxopyrrolidin-3-yl)phosphonic acid]", "values": [{"measurement": "zone of inhibition at 35 µg/disc", "setting": "E. coli (DH5α)", "value": "~24", "unit": "mm"}, {"measurement": "IC50", "setting": "[4]", "value": "~10", "unit": "nM"}, {"measurement": "toxicity against ENO1-deleted versus ENO1-intact glioma cells (in words)", "setting": "[2]", "value": "selective toxicity"}, {"measurement": "IC50", "setting": "ENO2 [3]", "value": "~10", "unit": "nM"}]}
